Measured values: patent publication US20250066480A1, “METHODS TO ENHANCE EFFICACY OF COMBINED TARGETING OF IMMUNE CHECKPOINT AND MAPK PATHWAYS” (THE REGENTS OF THE UNIVERSITY OF CALIFORNIA, priority 2021, published 2025)

Experiments:
[1] = tested on: intratumoral T-cell clonotypes (YUMM1.7ER metastases); assay: Bulk tumor TCR-seq of tumor-involved brain and ovarian tissues; assay type: in vivo, mouse; settings: on d3; FIG. 6B
Protocol: Total RNA was extracted from frozen tissue stored in RNALater using the QIAGEN All Prep DNA/RNA Mini Kit. RNA quality was measured using Bioanalyzer (Agilent). 710 ng-1,000 ng of RNA from ovary and brain tissues (RNA Integrity Number (RIN) score >7) was used as input to construct libraries with the QIAGEN QIAseq Immune Repertoire RNA Library Kit—T cell Receptor Panel (Qiagen). Briefly, RNA was reverse transcribed using a pool of TCR gene-specific primers against the constant region for the T cell receptor alpha, beta, gamma, and delta genes. The resulting cDNA was then ligated to an oligo containing one side of sample index and unique molecular index (UMI). […] The dual-indexed sample PCR fragment was purified and then quantified for absolute quantification of amplifiable libraries (DNA with adaptors at both ends) in triplicate by real-time qPCR using QIAGEN QIAseq Library Quant Array Kit. […] 12 μM of denatured library pool was run with QIAseq A Read1 Primer on Illumina NextSeq 500 Mid Output Kit using v2.5 chemistry for 300 cycles with an asymmetrical paired end 261/41 bp read for CDR3 region.
As reported previously (10), raw reads were submitted to the QIAGEN GeneGlobe Data Analysis Center (qiagen.com/us/shop/genes-and-pathways/data-analysis-center-overview-page/) to estimate the abundance of reads of unique CDR3 sequence and generate TCR clonotype calls. […]

[2] = tested on: YUMM1.7ER-luc (Braf^V600E melanoma) intracranial and extracranial metastases; assay: Experimental metastasis of syngeneic melanoma (intracardiac injection, BLI, survival); settings: MEKi monotherapy from d0
Protocol: YUMM1.7ER melanoma cells were engineered to express firefly luciferase (YUMM1.7ER-luc). Before every IC injection, cells were selected for stable luciferase expression by blasticidin treatment, yielding cells (1 million) that emitted luciferase light units of 5e8 to 5e9 in vitro. C57BL/6 (6-8 weeks old, female), after anesthesia with vaporized isoflurane (2.0-2.5%), were injected with 1×10^6 cells/mouse into the left ventricle for intracardiac inoculation. Progression of metastatic tumor burden and treatment effects in mice were monitored in vivo and ex vivo by bioluminescent imaging (BLI). We acquired BLI on both ventral and dorsal sides twice weekly until study endpoints (total ventral or dorsal BLI signal in the range of 1e9-1e10, moribund, or death). Mice were anesthetized with vaporized isoflurane; D-luciferin (150 mg luciferin/kg, Caliper Life Sciences) dosed by intraperitoneal injections; and, 10 minutes after injections, luciferase activities were measured with IVIS Lumina II Imaging System (PerkinElmer). Image analysis was performed with Living Image 4.7.2 Version (PerkinElmer). For ex vivo BLI, mice were euthanized 10 minutes after intraperitoneal injection of D-luciferin by cervical dislocation and organs were excised and imaged ex vivo by the IVIS system. […]

NRAS^MUT melanoma = settings: patients with NRAS^MUT melanoma; cited from earlier work

With `CC(=O)Nc1cccc(-n2c(=O)n(C3CC3)c(=O)c3c(Nc4ccc(I)cc4F)n(C)c(=O)c(C)c32)c1` [Trametinib, trametinib] as the compound, how does the “Fraction of overlapping TCR clones between two distinct regions of tumor-involved brain tissues” value [1] read?
The value was 6.17-9.77%.

And the “Delay of MBM” value [2]?
The value was ~1.5 weeks.

For `Cn1cnc2c(F)c(Nc3ccc(Br)cc3F)c(C(=O)NOCCO)cc21` [binimetinib], which “Clinical benefit (median PFS, confirmed overall response, median duration of objective response) in association with prior ICT” value (NRAS^MUT melanoma) is on record?
The value was “greater clinical benefit”.
